Data from US20110306639A1, “HYDROCARBYLIDENE NITROHYDROZINECARBOXIMIDAMIDES AND A METHOD FOR MAKING THE SAME, AS WELL AS THEIR USES AS AN INSECTICIDE” (priority 2008, published 2011).
Read-outs that look alike come from different tables or passages of the source.

Key:
asparagus caterpillar = details: in vivo
bemisia tabaci gennadius = details: in vivo
Helicoverpa armigera = details: in vivo
myzus persicae = details: for mortality(%) myzus persicae (600 μg/mL): in vivo; for numbers of death/total numbers: 24 h
aphis gossypii = details: 24 h
hyalopterus pruni = details: 24 h

Structure (SMILES) | mortality(%) asparagus caterpillar (500 μg/mL) (asparagus caterpillar) | mortality(%) bemisia tabaci gennadius (500 μg/mL) (bemisia tabaci gennadius) | mortality(%) Helicoverpa armigera (500 μg/mL) (Helicoverpa armigera) | mortality(%) myzus persicae (600 μg/mL) (myzus persicae) | numbers of death/total numbers (aphis gossypii; 3.13 μg/mL) | numbers of death/total numbers (aphis gossypii; 12.5 μg/mL) | numbers of death/total numbers (aphis gossypii; 50 μg/mL) | numbers of death/total numbers (hyalopterus pruni; 25 μg/mL) | numbers of death/total numbers (hyalopterus pruni; 50 μg/mL) | numbers of death/total numbers (hyalopterus pruni; 100 μg/mL) | numbers of death/total numbers (hyalopterus pruni; 200 μg/mL) | numbers of death/total numbers (hyalopterus pruni; 400 μg/mL) | numbers of death/total numbers (myzus persicae; 25 μg/mL) | numbers of death/total numbers (myzus persicae; 50 μg/mL) | numbers of death/total numbers (myzus persicae; 100 μg/mL) | numbers of death/total numbers (myzus persicae; 200 μg/mL) | numbers of death/total numbers (myzus persicae; 400 μg/mL)
O=[N+]([O-])N=C(NCc1ccc(Cl)nc1)NN=Cc1ccc(F)cc1 [Compound 114] | 70% | 2.04% | 40% | 72.3% |  |  |  |  |  |  |  |  |  |  |  |  | 
O=[N+]([O-])N=C(NCc1ccc(Cl)nc1)NN=Cc1ccccc1Cl [Compound 111] | 40% | 13.89% | 0% | 22.0% |  |  |  |  |  |  |  |  |  |  |  |  | 
O=[N+]([O-])N=C(NCc1ccc(Cl)nc1)NN=Cc1ccco1 [Compound 115] | 80% | 9.30% | 10% | 86.0% |  |  |  |  |  |  |  |  |  |  |  |  | 
CCCCCCC=NNC(=N[N+](=O)[O-])NCc1ccc(Cl)nc1 [Compound 50] | 0% |  | 20% | 100% | 156/157 | 150/150 | 245/245 | 104/108 | 98/102 | 101/101 | 110/110 | 102/102 | 78/78 | 91/92 | 87/87 | 103/107 | 96/96
CCCCC=NNC(=N[N+](=O)[O-])NCc1ccc(Cl)nc1 [Compound 56] | 20% |  | 70% | 100% | 121/157 | 136/164 | 166/178 | 100/104 | 96/101 | 121/121 | 101/101 | 103/103 | 104/104 | 96/99 | 149/149 | 81/81 | 77/77
C=CCNC(=N[N+](=O)[O-])NN=Cc1ccccc1Cl [Compound 93] | 70% |  | 40% | 96.0% | 178/186 | 124/124 | 138/138 | 102/112 | 104/108 | 103/103 | 110/110 | 103/103 | 112/112 | 94/98 | 104/104 | 114/114 | 93/93
COc1ccc(C=NNC(=N[N+](=O)[O-])NCc2ccc(Cl)nc2)cc1 [Compound 112] | 90% | 3.77% | 10% | 54.4% |  |  |  |  |  |  |  |  |  |  |  |  | 
